Columns and labels:
GP2d cells (KRAS G12D) = assay: Cell-based pERK HTRF assay in GP2d cell (Biological Example 2); details: GP2d, GP2d (KRAS G12D) cells, pERK HTRF
How it was run: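 Phospho-ERK in lysed cells was detected by HTRF using Eu cryptate and d2 antibodies, read between 4 and 24 h at room temperature. Prior to lysis, KRAS G12D GP2d cells, seeded the day before in DMEM with 10% FBS, were exposed to compounds for 60 min. Compounds were tested as 9-point half-log curves from 1 μM or 100 nM top, with 0.25% DMSO.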

[1] = biological target: T1, Avi-KRAS G12R (1-169) GppNHp/RAF1 RBD-3xFLAG (52-151) (Homo sapiens, UniProt P01116, G12R); assay: Raf1-KRAS G12R-GppNHP disruption HTRF assay (Biological Example 1); assay type: binding
T1 construct: Avi-KRAS G12R (1-169)
How it was run: (§1)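 Using HTRF, the loss of KRAS–effector RAF1 complex was quantified in 50 mM Tris pH 7.5 buffer with 100 mM NaCl and 0.1% BSA. The protein step and reagent step ran 1 h each at room temperature. Activity normalized with DMSO taken as 100%.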

SW620 cells (KRAS G12V) = assay: Cell-based pERK HTRF assay in SW620 cell (Biological Example 4); details: Homo sapiens, SW-620, SW620 (KRAS G12V) cells, pERK HTRF
How it was run: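 Read-out: HTRF pERK signal (excitation 320 nm, emission 615 nm) from lysates of SW620 cells after 4 h compound exposure. Dose range was 9 points, half-log steps from 1 μM, in 0.25% DMSO; antibody incubation ran 4–24 h at room temperature.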

[2] = biological target: T2, Avi-KRAS WT (1-169) GppNHp/RAF1 RBD-3xFLAG (52-151) (Homo sapiens, UniProt P01116); assay: Raf1-KRAS WT-GppNHP disruption HTRF assay (Biological Example 1); assay type: binding
T2 construct: Avi-KRAS WT (1-169)
How it was run: as §1

[3] = biological target: T3, Avi-KRAS G12V (1-169) GppNHp/RAF1 RBD-3xFLAG (52-151) (Homo sapiens, UniProt P01116, G12V); assay: Raf1-KRAS G12V-GppNHP disruption HTRF assay (Biological Example 1); assay type: binding
T3 construct: Avi-KRAS G12V (1-169)
How it was run: as §1

[4] = biological target: T4, Avi-KRAS G12D (1-169) GppNHp/RAF1 RBD-3xFLAG (52-151) (Homo sapiens, UniProt P01116, G12D); assay: Raf1-KRAS G12D-GppNHP disruption HTRF assay (Biological Example 1); assay type: binding
T4 construct: Avi-KRAS G12D (1-169)
How it was run: as §1

[5] = KRAS G12R, GppNHp-loaded, class symbols
[6] = KRAS WT, GppNHp-loaded, class symbols
[7] = KRAS G12V, GppNHp-loaded, class symbols
[8] = KRAS G12D, GppNHp-loaded, class symbols

T1 sequence (P01116 1-169 isoform P01116-2 G12R): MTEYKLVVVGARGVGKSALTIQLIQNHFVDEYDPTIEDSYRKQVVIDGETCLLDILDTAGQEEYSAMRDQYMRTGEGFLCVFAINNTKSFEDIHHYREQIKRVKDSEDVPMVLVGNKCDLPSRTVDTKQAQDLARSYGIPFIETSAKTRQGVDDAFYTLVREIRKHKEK
T2 sequence (P01116 1-169 isoform P01116-2): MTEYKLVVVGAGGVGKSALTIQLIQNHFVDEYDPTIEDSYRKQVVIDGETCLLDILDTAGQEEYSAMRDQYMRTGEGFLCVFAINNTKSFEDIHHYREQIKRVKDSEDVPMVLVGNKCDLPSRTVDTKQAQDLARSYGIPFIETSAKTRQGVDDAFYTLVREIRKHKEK
T4 sequence (P01116 1-169 isoform P01116-2 G12D): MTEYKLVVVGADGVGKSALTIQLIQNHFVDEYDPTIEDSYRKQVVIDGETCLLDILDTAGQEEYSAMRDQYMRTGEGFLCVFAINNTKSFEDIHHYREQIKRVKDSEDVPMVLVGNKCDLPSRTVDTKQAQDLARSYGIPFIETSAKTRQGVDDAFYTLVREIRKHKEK
T3 sequence (P01116 1-169 isoform P01116-2 G12V): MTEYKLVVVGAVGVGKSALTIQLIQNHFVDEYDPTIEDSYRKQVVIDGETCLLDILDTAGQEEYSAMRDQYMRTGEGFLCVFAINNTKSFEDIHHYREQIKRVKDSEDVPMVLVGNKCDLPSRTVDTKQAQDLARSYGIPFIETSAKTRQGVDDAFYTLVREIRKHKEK

Compound | IC50 (GP2d cells (KRAS G12D)) | IC50 ([1]; KRAS G12R-GppNHp/RAF1 RBD HTRF) | IC50 (SW620 cells (KRAS G12V)) | IC50 ([2]; KRAS WT-GppNHp/RAF1 RBD HTRF) | IC50 ([3]; KRAS G12V-GppNHp/RAF1 RBD HTRF) | IC50 ([4]; KRAS G12D-GppNHp/RAF1 RBD HTRF) | IC50 ([1]; KRAS G12R, GppNHp-loaded, Table 11) | IC50 ([2]; KRAS WT, GppNHp-loaded, Table 11) | IC50 ([3]; KRAS G12V, GppNHp-loaded, Table 11) | IC50 ([4]; KRAS G12D, GppNHp-loaded, Table 11) | IC50 (GP2d cells (KRAS G12D); class symbols) | IC50 [1, 5] | IC50 (SW620 cells (KRAS G12V); class symbols) | IC50 [2, 6] | IC50 [3, 7] | IC50 [4, 8]
CC(=O)N1CC[C@@H](N(C)c2nc(OC[C@@]34CCCN3C[C@H](F)C4)nc3c(F)c(-c4ccc(F)c5oc(N)c(C#N)c45)c(C(F)(F)F)cc23)[C@H]1C [Compound 326] | < 0.1 µM | 0.1 to 1 µM | 0.1 to 1 µM | 0.1 to 1 µM | 1 to 10 µM | 0.1 to 1 µM |  |  |  |  |  |  |  |  |  | 
CCN(c1nc(OC[C@@]23CCCN2C[C@H](F)C3)nc2c(F)c(-c3ccc(F)c4sc(N)c(C#N)c34)c(C(F)(F)F)cc12)[C@H]1CCN(C(=O)[C@@H]2CC23CC3)C1 (atropisomer, axis not shown) [Compound 774] |  |  |  |  |  |  |  |  |  |  | < 0.1 µM | 0.1 to 1 µM | < 0.1 µM | 0.1 to 1 µM | 0.1 to 1 µM | 0.1 to 1 µM
CCN(c1nc(OC[C@@]23CCCN2C[C@H](F)C3)nc2c(F)c(-c3ccc(F)c4sc(N)c(C#N)c34)c(C(F)(F)F)cc12)[C@@H]1CCN(C(=O)[C@H](C)OC)[C@@H]1C (atropisomer, axis not shown) [Compound 789] |  |  |  |  |  |  |  |  |  |  | < 0.1 µM | < 0.1 µM | < 0.1 µM | < 0.1 µM | 0.1 to 1 µM | < 0.1 µM
N#Cc1c(N)sc2c(F)ccc(-c3c(C(F)(F)F)cc4c(N5CCn6nc(C(=O)N7CCCC7)cc6C5)nc(OCC56CCCN5CC(F)C6)nc4c3F)c12 (stereo not drawn) [Compound 627] |  |  |  |  |  |  |  |  |  |  | < 0.1 µM | < 0.1 µM | < 0.1 µM | 0.1 to 1 µM | < 0.1 µM | < 0.1 µM
N#Cc1c(N)sc2c(F)ccc(-c3c(C(F)(F)F)cc4c(N5CCn6nc(C(=O)N7CC[C@H](O)C7)cc6C5)nc(OC[C@@]56CCCN5C[C@H](F)C6)nc4c3F)c12 [Compound 500] | < 0.1 µM | 0.1 to 1 µM | 0.1 to 1 µM | 0.1 to 1 µM | 0.1 to 1 µM | 0.1 to 1 µM |  |  |  |  |  |  |  |  |  | 
CN(c1nc(OC[C@@]23CCCN2C[C@H](F)C3)nc2c(F)c(-c3ccc(F)c4sc(N)c(C#N)c34)c(C(F)(F)F)cc12)C1CCS(=O)(=O)CC1 [Compound 330] | < 0.1 µM | 1 to 10 µM | 0.1 to 1 µM | 0.1 to 1 µM | 1 to 10 µM | 0.1 to 1 µM |  |  |  |  |  |  |  |  |  | 

Now from value to compound:

IC50 (GP2d cells (KRAS G12D)) | IC50 ([1]; KRAS G12R-GppNHp/RAF1 RBD HTRF) | IC50 (SW620 cells (KRAS G12V)) | IC50 ([2]; KRAS WT-GppNHp/RAF1 RBD HTRF) | IC50 ([3]; KRAS G12V-GppNHp/RAF1 RBD HTRF) | IC50 ([4]; KRAS G12D-GppNHp/RAF1 RBD HTRF) | IC50 ([1]; KRAS G12R, GppNHp-loaded, Table 11) | IC50 ([2]; KRAS WT, GppNHp-loaded, Table 11) | IC50 ([3]; KRAS G12V, GppNHp-loaded, Table 11) | IC50 ([4]; KRAS G12D, GppNHp-loaded, Table 11) | IC50 (GP2d cells (KRAS G12D); class symbols) | IC50 [1, 5] | IC50 (SW620 cells (KRAS G12V); class symbols) | IC50 [2, 6] | IC50 [3, 7] | IC50 [4, 8] | Compound
< 0.1 µM |  | < 0.1 µM |  |  |  | 0.1 to 1 µM | 0.1 to 1 µM | 0.1 to 1 µM | 0.1 to 1 µM |  |  |  |  |  |  | N#Cc1c(N)sc2c(F)ccc(-c3c(C(F)(F)F)cc4c(N5CC[C@@H]5CF)nc(OC[C@@]56CCCN5C[C@H](F)C6)nc4c3F)c12 [Compound 272]
< 0.1 µM | 0.1 to 1 µM | < 0.1 µM | 0.1 to 1 µM | 0.1 to 1 µM | 0.1 to 1 µM |  |  |  |  |  |  |  |  |  |  | N#Cc1c(N)sc2c(F)ccc(-c3c(C(F)(F)F)cc4c(N5CC6OCC5C6F)nc(OC[C@@]56CCCN5C[C@H](F)C6)nc4c3F)c12 (stereo partly drawn) [Compound 531]
 |  |  |  |  |  |  |  |  |  | < 0.1 µM | < 0.1 µM | < 0.1 µM | < 0.1 µM | < 0.1 µM | < 0.1 µM | CCN(c1nc(OC[C@@]23CCCN2C[C@H](F)C3)nc2c(F)c(-c3ccc(F)c4sc(N)c(C#N)c34)c(C(F)(F)F)cc12)[C@H]1CCN(C(=O)c2ccsn2)C1 (atropisomer, axis not shown) [Compound 722]
 |  |  |  |  |  |  |  |  |  | < 0.1 µM | 0.1 to 1 µM | < 0.1 µM | 0.1 to 1 µM | 0.1 to 1 µM | 0.1 to 1 µM | CCN(c1nc(OC[C@@]23CCCN2C[C@H](F)C3)nc2c(F)c(-c3ccc(F)c4sc(N)c(C#N)c34)c(C(F)(F)F)cc12)[C@H]1C[C@@H](COC)N(C(=O)N(C)C)C1 (atropisomer, axis not shown) [Compound 713]
< 0.1 µM | 0.1 to 1 µM | < 0.1 µM | 0.1 to 1 µM | 0.1 to 1 µM | 0.1 to 1 µM |  |  |  |  |  |  |  |  |  |  | CC(=O)N1C[C@H](N(C)c2nc(OC[C@@]34CCCN3C[C@H](F)C4)nc3c(F)c(-c4ccc(F)c5sc(N)c(C#N)c45)c(C(F)(F)F)cc23)C[C@H]1C [Compound 321]

From patent publication US20260042764A1, “COMPOSITIONS AND METHODS FOR INHIBITION OF KRAS” (TheRas, Inc., priority 2022, published 2026)
